Data set [1] in a line: Dissolution assay of tablets (release kinetics, SGF 2 h then SIF). The data set is classed as physicochemical. On the procedure: Dissolution assays of formulated monolithic tablets were done in simulated gastric fluid (SGF, pH 1.5) for 2 h and continued in simulated intestinal fluid (SIF, pH 6.8) as referred by USP method 40 (USP, 2017a).
The Pf (Pf, MD/Pf or CMS-Pf) release kinetics from different formulations (Pf, MD/Pf and CMS-Pf monolithic tablet dosage form) were recorded at 100 rpm and 37° C. using a Distek dissolution system 2100A (Betatek Inc., Markham, ON, Canada). At predetermined intervals, an established volume of samples (1 mL) was withdrawn from dissolution media, filtered (0.45 μm) and the released Pf was quantified by UV measurement at 280 nm.
CMS-Pf complexes were prepared as detailed above in Example 1. Briefly, CMS was dispersed at 8.5% in water. After homogenization and obtaining a homogenous suspension, an amount of 50 mL of CMS suspension was slowly added in 450 ml of Pf 21.5% previously dissolved in ethanol (60%). Similar operation was carried out for the CMS and for CMC (high viscosity) with a degree of substitution of 0.8. The final ratio Pf/carboxyl polymer (w/w) was respectively about of 96/4. The solutions were maintained under agitation at room temperature until spray-drying to obtain powders using the following parameters: 1) inlet temperature 150° C.; 2) outlet temperature 100° C.; 3) spray flow 500 L/h, and 4) aspirator setting at 38 m^3/h. During the drying process, the polymeric excipient/Pf suspension was continuously gently stirred to prevent sedimentation. The resulting powder was used to prepare monolithic tablets (12.5 mm diameter, 3.0 mm thickness) containing 400 mg of Pf by direct compaction. The kinetics of the drug release were recorded using the Distek™ dissolution (100 rpm) and the detection of Pf was monitored at 280 nm, first in a dissolution medium made of 1 L of SGF (pH 1.5) during 2 h. Then, the tablets were transferred in 1 L of SIF (pH 7.2) at 37° C.) (USP 32 method).
For each tablet, the dissolution was started in 1 L of SGF (pH 1.5) for 2h and followed in 1 L of SIF (pH 7.2) at 37° C., according to USP 32. The drug release kinetics were recorded using a Distek™ dissolution 2100A paddle system at 100 rpm.
The quantification of Pf was carried out at 280 nm, whereas the dosage of artemisinin was realized by spectrophotometry at 734 nm after filtration and dissolving artemisinin in the acetone/water (ratio 40:60) solvent containing ABTS (2,2′-azino-bis[3-ethylbenzothiazoline-6-sulphonate]).
Dissolution assay was done first in simulated gastric fluid (SGF, pH 1.5) for 2 h and then in simulated intestinal fluid (SIF, pH 6.8) as referred by USP method 40 (2017a). Release kinetics from different formulations were followed at 100 rpm and 37° C. using a Distek dissolution system 2100A (Betatek Inc., Markham, ON, Canada) with a Distek TCS 0200 (North Brunswick, NJ, USA). At predetermined intervals (0.5, 1, 2, 4, 6, 8 and10 h), released Pf and Arte were quantified using the appropriate method (described above).
For Pf dosage, a volume (5 mL) was withdrawn from dissolution media, properly filtered (0.45 μm) and diluted before absorbance measurement at 280 nm. To quantify released Arte, the insoluble precipitate was recuperated, washed several times to remove all Pf residues and quantified as previously described.
Dissolution assays was followed for each tablet first in simulated gastric fluid (SGF, pH 1.5) for 2 h and then continued in simulated intestinal fluid (SIF, pH 6.8) as referred by USP method 40 (USP, 2017c). Release kinetics from both formulation types (containing CMP-Pf or pCMC-Pf) were followed using a Distek dissolution system 2100A (Betatek Inc., Markham, ON, Canada) with a Distek TCS 0200 (North Brunswick, NJ, USA) at 100 rpm and 37° C. At predetermined intervals (0.5, 1, 2, 4, 6, 8, 10 and 12 h), released Pf and Arte from tablets were quantified by absorbancy at 280 nm (for Pf) and at 734 nm (for Arte, using ABTS•+ radical as probe reagent). […]

Data set [2] can be described thus: In vitro Arte and Pf interaction / stability in SGF (FTIR, NMR, antioxidant capacity). To be noted: SGF pH 1.5, 37° C., 2 h, one agent in the presence of the other. The class given is physicochemical. On the procedure: Since both bioactive agents, Art and Pf will be used in a combination therapy in the same dosage form, there is a risk of molecular interactions to be considered. […] These interactions could also cause a moderate loss of activity due to the partial degradation of the endoperoxide bridge of artemisinin. […] After incubation, Arte was separated from Pf by decantation, washed and dried before FTIR and RMN analyses; whereas the Pf solution (in presence or not of Arte) was filtered and the antioxidant capacity was evaluated as previously described in the section of antioxidant properties. In vitro interaction of Arte with CMC-Pf was evaluated in SGF. Arte and CMC-Pf were incubated in SGF (pH 1.5, at 37° C.) separately or one in the presence of each other (FIG. 31).

Setting [3] is: monolithic tablets with CMC-Pf or pCMC-Pf, Example 6.

SMILES strings stand for the structures.

Turning to `C[C@@H]1CC[C@H]2[C@@H](C)C(=O)O[C@@H]3O[C@@]4(C)CC[C@@H]1[C@]32OO4` [Artemisinin], in data set [1] (bi-layer tablet, Artemisinin 100 mg + Explotab layer, Example 3), the “Time to completed release of Artemisinin” value is recorded as 60 min. Besides, the “Art released after 2 h in SGF” value in data set [1] (monolithic tablet, 400 mg CMC/Pf + 100 mg artemisinin, Example 4) was “about 45%”. In addition, the “Time to complete release of Arte” value in data set [1] (monolithic tablet, in SIF, Example 5) amounted to 8 h; in data set [1] (setting [3]), 8 h. Also, the “Time to complete release of Art” value in data set [1] (monolithic tablet, Example 4) is on record as 8 h. Besides, the “Arte released after 2 h in SGF” value in data set [1] (monolithic tablet, Example 5) is recorded as “about 51%”; in data set [1] (setting [3]), “about 51%”. The “Degradation in SGF (FTIR, 1H NMR)” value was “No degradation” in data set [2] (listed as Arte) and “no degradation” in data set [2] (listed as artemisinin).
